Series [1] in a line: Human blood serum stability at 37 °C (gradient HPLC). Format: in vitro ADME. The following applies: freshly prepared human blood serum, over 120 min. Here is the method:
FIG. 17: Human serum blood stability of [^99mTc]FEB054. […] Blood serum stability was tested in freshly prepared human blood serum at 37° C. Samples were taken after 10, 20, 30, 60, 90 and 120 minutes and analysed using a gradient HPLC system. 5 MBq of [^99mTc]FEB054 in 20 μL PBS buffer was added to 200 μL of a freshly prepared human blood serum sample and incubated at 37° C. After 10, 20, 30, 60, 90 and 120 minutes, 20 μL were separated and diluted with 50 μL dichloromethane and 50 μL methanol. After centrifugation, 10 μL of the solution were analyzed via gradient-HPLC using a Knauer system with two Smartline 1000 pumps, Smartline UV detector 2500 (Herbert Knauer GmbH), a GabiStar γ-detector (Raytest lsotopenmessgeräte GmbH) and a reversed phase C18 column (Nucleosil 100-5 C-18 column 4.6 mm×250 mm). Eluent A: water (0.1% TFA). Eluent B: Methanol (0.1% TFA). […]
Blood serum stability was tested in freshly prepared human blood serum at 37° C. […] Samples were taken after 10, 20, 30, 60, 90 and 120 minutes and analysed using a gradient HPLC system. […] After centrifugation, 10 μl of the solution were analysed via gradient-HPLC using a Knauer system with two Smartline1000 pumps, Smartline UV-detector 2500 (Herbert Knauer GmbH), a GabiStar γ-detector (Raytest lsotopenmessgeräte GmbH) and a reverse phase […] column 4.6 mm×250 mm). […]

A short description of series [2]: Biodistribution and elimination of [99mTc]FEB054 in healthy Balb/c mice (SPECT/CT). Type of series: in vivo. Here is the method:
FIG. 18: Biodistribution (A) and elimination (B) of [^99mTc]FEB054 in healthy Balb/c mice. The tracer was intravenously injected at a dose of 62 MBq per mouse. The tracer accumulation and elimination was measured 0-90 min post injection.
Mice were injected and scanned under isoflurane/oxygen inhalation anaesthesia (1.4-1.8% isoflurane, 0.5 l O2/min). All animals were injected with a target dose of 2.5 MBq/g body weight) and a total injection volume ≤150 μl. For the image acquisition we used a NanoSPECT/CT-Plus preclinical camera (Mediso Medical Imaging Systems; Hungary), a 4-head gamma camera equipped with multi-pinhole collimators and a cone beam CT imaging system. In the shown studies we employed 9 pinholes/head with a diameter of 1.0 mm and a field of view of 30 mm×16 mm. 10 projections/scan and 60 seconds/projection resulting in a minimum of 100 kcounts/projection (in order to achieve high quality images with high statistics) were acquired. At the end of the SPECT measurement a CT scan was performed (same FOV as the SPECT scan) (55 kVp; 180 projections/rotation; 500 ms exposure time and 1 mm pitch with constant statistics). Data analysis was performed by CT based definitions of regions-of-interest and quantitative mesurements are expressed as kBq/mL.

The target in series [3] is T1, S100A9 (Mus musculus, UniProt P31725).
T1 construct: from tissue; host or cells: living mice (inflamed ear, joints) and explanted mouse heart, aorta and lungs
T1 sequence (P31725 2-113 limits assumed): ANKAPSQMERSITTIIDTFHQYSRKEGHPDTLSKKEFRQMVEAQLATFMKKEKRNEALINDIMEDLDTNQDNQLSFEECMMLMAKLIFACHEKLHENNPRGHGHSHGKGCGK
Put plainly: Irritant contact dermatitis (ICD) mouse model, SPECT/CT. Format: in vivo, mice. Conditions: 66 MBq per mouse i.v. Here is the method:
FIG. 19: Accumulation of [^99mTc]FEB054 in the inflamed ear and muscle in a mouse model of contact dermatitis (ICD). The tracer was intravenously in a mouse model of contact dermatitis of the left ear in WT mice (=inflamed, right hand side) at a dose of 66 MBq per mouse and measured 0-60 min post injection.
Mice were injected and scanned under isoflurane/oxygen inhalation anaesthesia (1.4-1.8% isoflurane, 0.5 l O2/min). All animals were injected with a target dose of 2.5 MBq/g body weight) and a total injection volume ≤150 μl. […] Data analysis was performed by CT based definitions of regions-of-interest and quantitative mesurements are expressed as kBq/mL.
ICD was induced by the application of 20 μl 1% croton oil in olive oil-acetone (1:4) to the ventral surface of the left ear of mice for 24 h (n=5 per group), whereas the right ear served as a control. […] In the Cy7 channel the quantum yield is much lower compared to the Cy5.5 channel, which means that the recorded signal with Cy5.5-CES271 is higher than compared to […] (right image; FIG. 21). […] The labelling efficacy (dye/antibody ratio) was determined on the basis of ultraviolet-spectra of the purified dye-antibody compound using PBS as a reference buffer. […]

Series [4] concerns the target T1, S100A9. As to the kind of experiment: Collagen induced arthritis mouse model, SPECT/CT. Type of series: in vivo, DBA/1j mice. Conditions: 55 MBq per mouse i.v. Here is the method: FIG. 20: Accumulation of [^99mTc]FEB054 in a mouse model of collagen induced arthritis. The tracer was intravenously injected at a dose of 55 MBq per mouse. […] The tracer distribution was measured in vivo 60 min post injection using SPECT/CT.
Induction and imaging of CIA: Arthritis was induced in DBA/1j mice by injection of bovine collagen type II. Bovine collagen type II (bCII, MD Biosciences) was dissolved in 0.05 M acetic acid at a concentration of 2 mg/ml. DBA/1j mice were injected subcutaneously at the tail base with 100 μg bCII emulsified in CFA (Difco) and boostered on day 21 with 100 μg bCII in IFA at the same location. Mice were regularly inspected from day 14 after disease induction and scored for swelling, erythema and deformation of each joint three times a week. Imaging was performed after arthritis was clinically detectable in the majority of treated animals at indicated time points after tracer application of either Cy5.5-CES271 or [99mTc]FEB054.
SPECT/CT imaging of inflamed joints was recorded 1 h after iv injection of [99mTc]FEB054 (55 MBq of [99mTc]FEB054 per mouse). Individual feet of the mice were analysed separately according to the histological score. […] Even single affected joints could be clearly identified.

“Also recorded” adds a separate entry of the source.

In the case of “fac-[^99mTc(CO)3(5-ethyl-4-hydroxy-1-methyl-N-{1-(1-methyl-1H-imidazol-2-yl)-2-[(1-methyl-1H-imidazol-2-yl)methyl]-5,8,11-trioxa-2-azatridecan-13-yl}-2-oxo-N-phenyl-1,2-dihydroquinoline-3-carboxamide)]^+ [[^99mTc]FEB054]”, in series [1], the “Human blood serum stability (decomposition)” value is reported as “very good; also recorded: no decomposition”. Moreover, in series [2] (62 MBq per mouse i.v.), the “Accumulation of the tracer in the liver and intestines” value is “intensive accumulation”; the “Time of hepato-biliary elimination” value is at most 20 min. The Route of elimination entry in series [2] (62 MBq per mouse i.v., 0-90 min post injection) is “predominant hepato-biliary elimination”. Besides, the “Tracer availability in the blood” value in series [2] (62 MBq per mouse i.v., first 10 minutes) is “good tracer availability in the blood”. In series [2] (mouse, in vivo), the Blood half-life entry is listed as “suitable”. Moreover, at S100A9 [3] (45 minutes post injection), the “Tracer uptake in the inflamed ear compared to the healthy control ear” value is recorded as “higher tracer uptake”. Moreover, on S100A9 [3] (dynamic imaging 0-60 min post injection), the “Uptake ratios inflamed ear versus blood and muscle” value is reported as “increasing uptake ratios”. Besides, the “Correlation of SPECT signal with clinical scoring” value at S100A9 [4] (1 h after injection) is reported as “excellent correlation”. At S100A9 [4] (60 min post injection), the “Tracer accumulation in inflamed joints of the hind limbs versus healthy control mouse” value is listed as “tracer accumulation in the inflamed joints”; the “Tracer accumulation in liver, intestines, kidneys and urinary bladder” value is reported as “intensive tracer accumulation”.

(Values after patent US10350315B2, “Quinoline-3-carboxamide compounds and their use in diagnosis” (Westfaelische Wihelms-Universitaet Muenster, priority 2014, dated 2019).)
